Reference: US20230000997A1, “PROCESSES OF PREPARING POLYGLUTAMATED ANTIFOLATES AND USES OF THEIR COMPOSITIONS” (L.E.A.F. HOLDINGS GROUP LLC, priority 2019, published 2023)

Test: Applicant's experiments with FITC on liposomes (immunostimulant / detectable marker)
Conditions: reagent attached to liposome exterior

## fluorescein isothiocyanate [FITC]
  function as immunostimulant and detectable marker: serves as both an immunostimulant and a detectable marker
